Assay [1] addresses T1, chymotrypsin-like activity of rabbit muscle 20S proteasomes (Oryctolagus cuniculus, UniProt G1T4Q9).
T1 sequence (G1T4Q9 1-263): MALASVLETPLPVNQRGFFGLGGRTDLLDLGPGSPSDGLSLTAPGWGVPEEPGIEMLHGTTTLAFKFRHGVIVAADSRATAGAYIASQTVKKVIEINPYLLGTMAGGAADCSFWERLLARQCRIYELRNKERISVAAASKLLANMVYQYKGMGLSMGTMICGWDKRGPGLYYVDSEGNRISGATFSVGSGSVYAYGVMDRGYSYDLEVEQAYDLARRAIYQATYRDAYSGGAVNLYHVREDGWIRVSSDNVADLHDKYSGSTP
Nature of the assay: Inhibition of chymotrypsin-like activity of purified rabbit muscle 20S proteasome (suc-LLVY-AMC). Format: biochemical. The method, then: This peptide substrate is specific for the chymotrypsin-like enzyme activity of the proteasome.
Omuralide was prepared as a 10 mM stock in DMSO and stored in 5 μL aliquots at −80° C. […] The assay measures the hydrolysis of Suc-LLVY-AMC into Suc-LLVY and AMC. The released coumarin (AMC) was measured fluorometrically by using λex=390 nm and λem=460 nm. The assays were performed in a microtiter plate (Corning 3904), and followed kinetically with measurements every five minutes. The instrument used was a Thermo Lab Systems Fluoroskan, with the incubation chamber set to 37° C. The assays were performed according to the manufacturer's protocol, with the following changes. The proteasome was activated as described with SDS, and held on ice prior to the assay. […] Ten microliters of each dose were added in triplicate to the assay plate, and 190 μL of the activated proteasome was added and mixed. The samples were pre-incubated in the Fluoroskan for 5 minutes at 37° C. Substrate was added and the kinetics of AMC were followed for one hour.

The target in assay [2] is T2, trypsin-like activity of purified rabbit 20S proteasomes (Oryctolagus cuniculus, UniProt G1SWK8).
T2 sequence (G1SWK8 1-271): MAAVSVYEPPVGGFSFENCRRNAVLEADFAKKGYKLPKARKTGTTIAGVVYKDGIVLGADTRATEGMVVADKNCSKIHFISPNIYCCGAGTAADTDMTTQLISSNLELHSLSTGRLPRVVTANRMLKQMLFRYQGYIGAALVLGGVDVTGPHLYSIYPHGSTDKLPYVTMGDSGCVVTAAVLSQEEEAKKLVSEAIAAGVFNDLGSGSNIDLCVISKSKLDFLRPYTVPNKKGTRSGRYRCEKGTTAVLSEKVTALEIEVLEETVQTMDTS
The note with it: under the conditions tested.

For assay [3], the system named is NCI-H292 cells. Nature of the assay: Cell growth inhibition (resazurin, 48 hours), NCI-H292. Format: cell-based, human. The note with it: Homo sapiens, NCI-H292. On the technique in general: Resazurin is reduced to fluorescent resorufin, in cell work by metabolically active cells.
Assay [4] concerns HL-60 cells. Nature of the assay: Cell growth inhibition (resazurin, 48 hours), HL-60. As to conditions: Homo sapiens, HL-60, read-out: EC50 (nM) HL-60, Table 17. An excerpt: (§1) The DNA binding agent Mitoxantrone was included as a control, as HL-60/MX2 cells are reported to be resistant to this chemotherapeutic agent (Harker W. G. et al. 1989).
Assay [5] has as its system MDA-MB-231 cells. Nature of the assay: Cell growth inhibition (resazurin, 48 hours), MDA-MB-231. Format: cell-based. As to conditions: Homo sapiens, MDA-MB-231.
Assay [6] concerns LeTx-induced cytotoxicity of RAW264.7 cells. Nature of the assay: cells. The note with it: Mus musculus, RAW264.7, read-out: EC50 (nM), inhibition of RAW 264.7 cell cytotoxicity mediated by anthrax lethal toxin.
Assay [7] has as its system MES-SA/Dx5 cells. Nature of the assay: cells. The note with it: Homo sapiens, MES-SA/Dx5, read-out: EC50 (nM) MES-SA/Dx5, Table 16.
Assay [8] concerns the target PGPH (caspase-like) activity of rabbit muscle 20S proteasomes (Oryctolagus cuniculus, UniProt A0A5F9DQW2). Nature of the assay: Inhibition of caspase-like (PGPH) activity of 20S proteasome (Z-LLE-AMC). Format: biochemical. As to conditions: Table 3; mean EC50; purified rabbit 20S proteasomes. Here is the method:
A commercially available fluorogenic substrate specific for the PGPH activity was used instead of the chymotrypsin substrate supplied in the proteasome assay kit described above.
The substrate Z-LLE-AMC was prepared as a 20 mM stock solution in DMSO, stored at −20° C. The source of the proteasomes was the commercially available kit from Calbiochem (Cat. #539158). As with the chymotrypsin substrate, the proteasome can cleave Z-LLE-AMC into Z-LLE and free AMC. The activity can then be determined by measuring the fluorescence of the released AMC (λex=390 nm and λem=460 nm). The proteasomes were activated with SDS and held on ice as per manufacturer's recommendation. […] The series was diluted 20-fold with assay buffer and preincubated with the proteasomes as described for the chymotrypsin-like activity. After addition of substrate, the samples were incubated at 37° C., and release of the fluorescent AMC was monitored in a fluorimeter. All data were collected and plotted as the mean of triplicate points. […] As before, the model chosen was a sigmoidal dose-response, with a variable slope.

Assay [9] relates to HL-60/MX2 cells. Nature of the assay: cells. As to conditions: Homo sapiens, HL60/MX2, read-out: EC50 (nM) HL-60/MX2, Table 17.
Text: as §1

The test system of assay [10] is HT-29 cells. Nature of the assay: Cell growth inhibition (resazurin, 48 hours), HT-29. Format: cell-based. The note with it: Homo sapiens, HT-29.
Assay [11] concerns PC-3 cells. Nature of the assay: Cell growth inhibition (resazurin, 48 hours), PC-3. Format: cell-based, human. As to conditions: Homo sapiens, PC-3.
Assay [12] relates to B16-F10 cells. Nature of the assay: Cell growth inhibition (resazurin, 48 hours), B16-F10. Format: cell-based, mouse. As to conditions: Mus musculus, B16-F10, Table 13; B16-F10.
Assay [13] concerns the target T2, trypsin-like activity of purified rabbit 20S proteasomes. Nature of the assay: biochemical.
Assay [14] concerns MES-SA cells. Nature of the assay: Cell growth inhibition (resazurin, 48 hours), MES-SA. As to conditions: Homo sapiens, MES-SA, read-out: EC50 (nM) MES-SA, Table 16.
Assay [15] concerns RPMI 8226 cells. Nature of the assay: Cell growth inhibition (resazurin, 48 hours), RPMI 8226.
Assay [16] concerns OVCAR-3 cells. Nature of the assay: Cell growth inhibition (resazurin, 48 hours), OVCAR-3. Format: cell-based, human. As to conditions: Homo sapiens, OVCAR-3, Table 13; OVCAR-3.
Assay [17] deals with U266 cells. Nature of the assay: Cell growth inhibition (resazurin, 48 hours), U266.
The subject of assay [18] is NF-κB-mediated luciferase activity in HEK293 NF-κB/Luc cells. Nature of the assay: NF-κB-mediated luciferase reporter gene assay. Format: cell-based, human. As to conditions: for EC50: Homo sapiens, HEK293, representative experiment, Example 43 (FIG. 44, 45), read-out: calculated EC50 to inhibit NF-κB inducible luciferase activity; for luciferase activity upon TNF-α stimulation: pretreatment of NF-κB/Luc 293 cells. The method, then:
The HEK293 NF-κB/luciferase reporter cell line is a derivative of the human embryonic kidney cell line (ATCC; CRL- 1573) and carries a luciferase reporter gene under the regulation of 5×NF-κB binding sites. […] When performing the luciferase assay, the DMEM basal medium was replaced with phenol-red free DMEM basal medium and the G418 was omitted.
For NF-κB-mediated luciferase assays, HEK293 NF-κB/luciferase cells were seeded at 1.5×10^4 cells/well in 90 μl phenol-red free DMEM complete medium into Corning 3917 white opaque-bottom tissue culture plates. […] This dilution series was further diluted 40× in appropriate culture medium and ten μl aliquots were added to the test wells in triplicate resulting in final test concentrations ranging from 1 μM to 320 pM. […] For Formula II-19, a 127 μM starting dilution was made in 100% DMSO and the final test concentrations ranging from 317 nM to 0.1 nM. […] After 1 hr pretreatment, 10 μl of a 50 ng/ml TNF-α solution, prepared in the phenol-red free DMEM medium was added, and the plates were incubated for an additional 6 hr.
NF-κB inducible luciferase activity was measured at 6 hours.
The HEK293 NF-κB/luciferase reporter cell line is a derivative of the human embryonic kidney cell line (ATCC; CRL-1573) and carries a luciferase reporter gene under the regulation of 5×NF-κB binding sites. […] When performing the luciferase assay, the DMEM basal medium was replaced with phenol-red free DMEM basal medium and the G418 was omitted.
For NF-κB-mediated luciferase assays, HEK293 NF-κB/luciferase cells were seeded at 1.5×10^4 cells/well in 90 μl phenol-red free DMEM complete medium into Corning 3917 white opaque-bottom tissue culture plates. For Formula II-2, Formula II-4 and Formula II-5A, a 400 μM starting dilution was made in 100% DMSO and this dilution was used to generate a 8-point half log dilution series. This dilution series was further diluted 40× in appropriate culture medium and ten μl aliquots were added to the test wells in triplicate resulting in final test concentrations ranging from 1 μM to 320 pM. […] After 1 hr pretreatment, 10 μl of a 50 ng/ml TNF-α solution, prepared in the phenol-red free DMEM medium was added, and the plates were incubated for an additional 6 hr.
The relative luciferase units (RLU) were measured by using a Fusion microplate fluorometer (Packard Bioscience).

[19] abbreviates: Table 3, mean EC50, purified rabbit 20S proteasomes, read-out: EC50 Values, Chymotrypsin-like.
Setting [20] is: representative experiment, Example 44 (FIG. 46, 47), read-out: EC50, chymotrypsin-like activity of the proteasome.
The mark [21] stands for this setting: Homo sapiens, RPMI-8226, Table 13, RPMI 8226.
The mark [22] stands for this setting: Homo sapiens, U-266, Table 13, U266.
The mark [23] stands for this setting: Homo sapiens, RPMI-8226, read-out: RPMI 8226 EC50 (nM), Table 15, mean EC50.
Where [24] appears, read: Homo sapiens, U-266, read-out: U266 EC50 (nM), Table 15, mean EC50.

Read-outs that look alike come from different tables or passages of the source.

PGPH (caspase-like) activity of rabbit muscle 20S proteasomes, sequence (A0A5F9DQW2 1-212): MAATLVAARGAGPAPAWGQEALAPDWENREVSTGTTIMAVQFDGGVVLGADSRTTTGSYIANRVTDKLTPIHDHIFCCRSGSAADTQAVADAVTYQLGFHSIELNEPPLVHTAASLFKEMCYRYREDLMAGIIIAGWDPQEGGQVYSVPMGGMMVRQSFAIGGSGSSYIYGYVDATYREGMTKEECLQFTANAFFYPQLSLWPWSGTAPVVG

For `CC[C@H]1C(=O)N[C@@]2([C@@H](O)C3CCCCC3)C(=O)O[C@@]12C` [Formula II-3], the EC50 is 927 nM in assay [1] (setting [19]); 890 nM in assay [1] (setting [20]); > 20000 nM in assay [3] (NCI-H292, Table 13); > 20000 nM in assay [4]; > 20000 nM in assay [5]; > 330 nM in [6]. The EC50 in assay [7], in [8], in assay [9], in [10], in assay [11] and in [12] was > 20000 nM in each case. Moreover, the EC50 is 6600 nM in [13]; > 20000 nM in assay [14]; > 20000 nM in [15] (setting [21]); > 20000 nM in assay [16]; > 20000 nM in assay [17] (setting [22]). Besides, the “inhibit the trypsin-like activity of the 20S proteasome” value (shortened to “inhibit the trypsin-like activity”) in assay [2] was “able to inhibit”.
In the case of `C[C@@]12OC(=O)[C@]1([C@@H](O)[C@H]1CCC[C@H]3O[C@@H]13)NC(=O)[C@@H]2CCCl` [Formula II-5A], the EC50 was 6.5 nM in assay [1] (setting [19]); 6 nM in [1] (setting [20]); 90 nM in assay [3] (Table 13, read-out: EC50); 30 nM in assay [18]; 66 nM in assay [5] (Table 13, read-out: EC50); 3 nM in assay [6]. For the same compound, the EC50 in [8] was determined as 487 nM; in assay [10] (Table 13, read-out: EC50) it was 85 nM; in assay [11] (Table 13, read-out: EC50), 97 nM; in assay [13] it was 89 nM; in [15] (setting [21]), 36 nM; in assay [15] (setting [23]), 33 nM. Besides, the EC50 in [15] (Table 13, RPMI 8226) was found to be 29 nM; in assay [17] (setting [22]), 10 nM; in [17] (setting [24]), 10 nM; in assay [17] (Table 13, U266), 9 nM. Also, the “inhibit the trypsin-like activity” value in assay [2] is “able to inhibit”. Moreover, the “luciferase activity upon TNF-α stimulation” value in [18] is “dose-dependent decrease”.
Turning to `C[C@@]12OC(=O)[C@]1([C@@H](O)[C@H]1CCC[C@@H]3O[C@H]13)NC(=O)[C@@H]2CCCl` [Formula II-5B], the EC50 in [1] (setting [19]) is 87 nM; in [1] (setting [20]) it was 88 nM; in assay [3] (Table 13, read-out: EC50), > 20000 nM; in assay [18] it was 261 nM; in assay [5] (Table 13, read-out: EC50), 1040 nM; in assay [6], 45 nM. The EC50 is 3300 nM in [8]; 1070 nM in assay [10] (Table 13, read-out: EC50); 1330 nM in assay [11] (Table 13, read-out: EC50); 739 nM in assay [13]; 326 nM in assay [15] (setting [21]); 327 nM in [15] (setting [23]). Further, the EC50 came to 328 nM in assay [15] (Table 13, RPMI 8226); 118 nM in [17] (setting [22]); 115 nM in assay [17] (setting [24]); 111 nM in [17] (Table 13, U266). Moreover, the “inhibit the trypsin-like activity” value in assay [2] is “able to inhibit”. Moreover, in assay [18], the “luciferase activity upon TNF-α stimulation” value is “dose-dependent decrease”.
As to `CC[C@H]1C(=O)N[C@@]2([C@@H](O)[C@@H]3C=CCCC3)C(=O)O[C@@]12C` [Formula II-17], the “inhibit the trypsin-like activity” value in assay [2] is given as “able to inhibit”. The EC50 was > 20000 nM in assay [3] (NCI-H292, Table 13); > 20000 nM in assay [4]; 5900 ± 601 nM in assay [5]; 42 nM in assay [6]; 9450 nM in assay [7]; > 20000 nM in [9]. The EC50 was > 20000 nM in assay [10]; > 20000 nM in assay [11]; 588 nM in assay [13]; 9230 nM in [14]; > 20000 nM in [16]. In addition, the “luciferase activity upon TNF-α stimulation” value in assay [18] is on record as “dose-dependent decrease”.

The record behind these values is patent US20050049294A1, “Methods of using [3.2.0] heterocyclic compounds and analogs thereof” (priority 2003, published 2005).
